# Source: patent US7601751B2, “Indole acetic acid acyl guanidines as β-secretase inhibitors” (Bristol-Myers Squibb Company, priority 2005, dated 2009)
# Target: T1, BACE1 enzyme (Homo sapiens, UniProt P56817)
# T1 construct: The HEK293-9B.A1 cell line, which overexpresses the BACE1 enzyme, was derived from HEK293 cells; endogenous in cells; washed membrane pellet / cell homogenate
# Assay: Radioligand displacement assay with a radiolabeled BACE inhibitor on HEK293-9B.A1 cell homogenate
# Assay type: binding
# Conditions: HEK293-9B.A1 cell homogenate overexpressing BACE1, 1 nM radioligand, pH 5.0, 1.5 hr at 25° C., read-out: Activity Rating (activity based on IC50 values)
# Experimental: Radioligand displacement assays with a radiolabeled BACE inhibitor (WO 2004 013098, compound 3, where the methoxy group is substituted for C(^3H)3) were carried out using standard methods (Keen, M. (1999) in Receptor Binding Techniques (Walker, J. M. ed) p. 106 Humana Press, Totowa, N.J.). The HEK293-9B.A1 cell line, which overexpresses the BACE1 enzyme, was derived from HEK293 cells (Simmons, N. L. (1990) A cultured human renal epithelioid cell line responsive to vasoactive intestinal peptide. Exp. Physiol. 75:309-19.) by RAGE™ (Harrington, J. J. et al. (2001) Creation of genome-wide protein expression libraries using random activation of gene expression. Nat. Biotechnol. 19:440-5; U.S. Pat. No. 6,410,266 and 6,361,972). T225 flask cultures of HEK293-9B.A1 were grown to 80% confluency in DMEM supplemented with 2 mM L-glutamine, 10 μg/ml penecillin, 10 μg/ml streptomycin, 3 μg/ml puromycin, 100 nM methotrexate, and 10% fetal bovine serun (Invitrogen, Carlsbad, Calif.), harvested, and resuspended at 2×10^8 cells per 10 ml of lysis buffer consisting of 50 mM HEPES pH 7.0 containing a protease inhibitor cocktail of AEBSF 104 μM, aprotinin 80 nM, leupeptin 2 μM, bestatin 4 μM, pepstatin A 1.5 μM, and E-64 1.4 μM (0.1% of protease inhibitor cocktail P8340, Sigma-Aldrich, St. Louis, Mo.) at 4° C. The resuspended cells were homogenized using a Polytron (Brinkman, Westbury, N.Y.) at setting 6 for 10 sec., then centrifuged at 48,000×g for 10 min. The resulting pellet was washed by repeating the resuspension, homogenization and centrifugation steps. The final pellet was resuspended in buffer at 4° C. to yield a total protein concentration of 5 mg/ml, then aliquots were frozen in liquid nitrogen for further storage at −70° C. Immediately before carrying out a binding assay, an aliquot of cell homogenate was thawed and diluted to a concentration of 100 μg/ml in assay buffer consisting of 50 mM HEPES pH 5.0 and 0.1% CHAPSO. Assays were initiated in polypropylene 96-well plates (Costar, Cambridge, Mass.) by the addition of 200 μl of cell homogenate to 50 μl of assay buffer containing 1 nM radioligand (WO 2004 013098, compound 3, where the methoxy group is substituted for C(^3H)3: 80 Ci/mMol) and various concentrations of unlabelled compounds, and incubated for 1.5 hr. at 25° C. Separation of bound from free radioligand was by filtration on GFF glass fiber filters (Innotech Biosystems International, Lansing, Mich.) using an Innotech cell harvester. Filters were washed three times with 0.3 ml of phosphate buffered saline pH 7.0 at 4° C. and assessed for radioactivity using a Wallac 1450 Microbeta liquid scintillation counter (PerkinElmer, Boston, Mass.). Ki values of competing compounds were derived through Cheng-Prussoff correction of IC50 values calculated using XLfit (IDBS, Guildford, UK).
# T1 sequence (P56817 46-501): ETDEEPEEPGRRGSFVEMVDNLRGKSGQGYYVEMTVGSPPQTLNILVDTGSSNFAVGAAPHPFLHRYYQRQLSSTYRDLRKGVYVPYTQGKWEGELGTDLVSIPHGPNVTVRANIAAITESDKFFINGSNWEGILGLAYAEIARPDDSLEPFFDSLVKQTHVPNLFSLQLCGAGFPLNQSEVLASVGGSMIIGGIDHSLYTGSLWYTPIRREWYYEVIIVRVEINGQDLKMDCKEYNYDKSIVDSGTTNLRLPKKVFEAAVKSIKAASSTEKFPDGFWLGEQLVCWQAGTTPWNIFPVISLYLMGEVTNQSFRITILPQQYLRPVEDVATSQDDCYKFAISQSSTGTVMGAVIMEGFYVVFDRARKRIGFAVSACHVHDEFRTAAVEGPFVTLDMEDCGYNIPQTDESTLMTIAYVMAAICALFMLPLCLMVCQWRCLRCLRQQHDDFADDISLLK
row,Structure (SMILES),IC50 [nM]
1,"CC(=O)Nc1c(Cl)cc(CN/C(N)=N/C(=O)Cc2c[nH]c3cc(Br)ccc23)cc1Cl [Example 1, N-(4-{N′-[2-(6-Bromo-1H-indol-3-yl)-acetyl]-guanidinomethyl}-2,6-dichloro-phenyl)-acetamide]",100 to 1000
2,"COc1ccc2[nH]cc(CC(=O)/N=C(\N)NCc3cc(Cl)c(NC(C)=O)c(Cl)c3)c2c1 [Example 2, N-(2,6-Dichloro-4-{N′-[2-(5-methoxy-1H-indol-3-yl)-acetyl]-guanidinomethyl}-phenyl)-acetamide]",100 to 1000
3,"COc1ccc2[nH]cc(CC(=O)/N=C(\N)NCc3cc(Cl)cc(Cl)c3)c2c1 [Example 3, N-(3,5-Dichloro-benzyl)-N′-[2-(5-methoxy-1H-indol-3-yl)-acetyl]-guanidine]",> 1000
4,"N/C(=N\C(=O)Cc1c[nH]c2ccc(F)cc12)NCc1cc(Cl)cc(Cl)c1 [Example 4, N-(3,5-Dichloro-benzyl)-N′-[2-(5-fluoro-1H-indol-3-yl)-acetyl]-guanidine]",> 1000
5,"Cn1cc(CC(=O)/N=C(\N)NCc2cc(Cl)c(N)c(Cl)c2)c2ccccc21 [Example 5, N-((4-amino-3,5-dichlorobenzylamino)(amino)methylene)-2-(1-methyl-1H-indol-3-yl)acetamide]",> 1000
6,"N/C(=N\C(=O)Cc1cn(Cc2ccc(F)cc2)c2ccccc12)NCc1cc(Cl)c(N)c(Cl)c1 [Example 6, N-((4-amino-3,5-dichlorobenzylamino)(amino)methylene)-2-(1-(4-fluorobenzyl)-1H-indol-3-yl)acetamide]",> 1000
7,"COc1ccc2[nH]cc(CC(=O)/N=C(\N)NCc3cc(Cl)c(N)c(Cl)c3)c2c1 [Example 7, N-((4-amino-3,5-dichlorobenzylamino)(amino)methylene)-2-(5-methoxy-1H-indol-3-yl)acetamide]",> 1000
8,"CC(C(=O)/N=C(\N)NCc1cc(Cl)c(N)c(Cl)c1)c1c[nH]c2ccccc12 (stereo not shown) [Example 8, N-((4-amino-3,5-dichlorobenzylamino)(amino)methylene)-2-(1H-indol-3-yl)propanamide]",> 1000
9,"COc1ccc2[nH]cc(CC(=O)/N=C(\N)NCc3cc(C)c(NC(C)=O)c(Cl)c3)c2c1 [Example 9, N-(2-Chloro-4-{N′-[2-(5-methoxy-1H-indol-3-yl)-acetyl]-guanidinomethyl}-6-methyl-phenyl)-acetamide]",100 to 1000
10,"COc1ccc2[nH]c(C)c(CC(=O)/N=C(\N)NCc3cc(Cl)c(NC(C)=O)c(Cl)c3)c2c1 [Example 10, N-(2,6-Dichloro-4-{N′-[2-(5-methoxy-2-methyl-1H-indol-3-yl)-acetyl]-guanidinomethyl}-phenyl)-acetamide]",100 to 1000
11,"CC(=O)Nc1c(Cl)cc(CN/C(N)=N/C(=O)Cc2c(C)[nH]c3ccccc23)cc1Cl [Example 11, N-(2,6-Dichloro-4-{N′-[2-(2-methyl-1H-indol-3-yl)-acetyl]-guanidinomethyl}-phenyl)-acetamide]",100 to 1000
12,"CC(=O)Nc1c(Cl)cc(CN/C(N)=N/C(=O)Cc2c[nH]c3ccc(F)cc23)cc1Cl [Example 12, N-(2,6-Dichloro-4-{N′-[2-(5-fluoro-1H-indol-3-yl)-acetyl]-guanidinomethyl}-phenyl)-acetamide]",100 to 1000
13,"CC(=O)Nc1c(Cl)cc(CN/C(N)=N/C(=O)Cc2c[nH]c3ccc(OCc4ccccc4)cc23)cc1Cl [Example 13, N-(4-{N′-[2-(5-Benzyloxy-1H-indol-3-yl)-acetyl]-guanidinomethyl}-2,6-dichloro-phenyl)-acetamide]",> 1000
14,"CC(=O)Nc1c(Cl)cc(CN/C(N)=N/C(=O)Cc2c[nH]c3ccc(O)cc23)cc1Cl [Example 14, N-(2,6-Dichloro-4-{N′-[2-(5-hydroxy-1H-indol-3-yl)-acetyl]-guanidinomethyl}-phenyl)-acetamide]",100 to 1000
15,"CC(=O)Nc1c(Cl)cc(CN/C(N)=N/C(=O)Cc2c[nH]c3cc(OCc4ccccc4)ccc23)cc1Cl [Example 15, N-(4-{N′-[2-(6-Benzyloxy-1H-indol-3-yl)-acetyl]-guanidinomethyl}-2,6-dichloro-phenyl)-acetamide]",100 to 1000
16,"CC(=O)Nc1c(Cl)cc(CN/C(N)=N/C(=O)Cc2c[nH]c3cc(F)ccc23)cc1Cl [Example 16, N-(2,6-Dichloro-4-{N′-[2-(6-fluoro-1H-indol-3-yl)-acetyl]-guanidinomethyl}-phenyl)-acetamide]",100 to 1000
17,"N/C(=N\C(=O)Cc1c[nH]c2ccc(Br)cc12)NCc1cc(Cl)c(N)c(Cl)c1 [Example 17, N-(4-Amino-3,5-dichloro-benzyl)-N′-[2-(5-bromo-1H-indol-3-yl)-acetyl]-guanidine]",> 1000
18,"CN1CCN(c2ccc(CN/C(N)=N/C(=O)Cc3c[nH]c4ccc(Br)cc34)cc2)CC1 [Example 18, N-[2-(5-Bromo-1H-indol-3-yl)-acetyl]-N′-[4-(4-methyl-piperazin-1-yl)-benzyl]-guanidine]",> 1000
19,"CN1CCN(c2ccc(CN/C(N)=N/C(=O)Cc3c[nH]c4ccc(Br)cc34)cc2Cl)CC1 [Example 19, N-[2-(5-Bromo-1H-indol-3-yl)-acetyl]-N′-[3-chloro-4-(4-methyl-piperazin-1-yl)-benzyl]-guanidine]",> 1000
20,"CC(=O)Nc1c(Cl)cc(CN/C(N)=N/C(=O)Cc2c[nH]c3ccc(Br)cc23)cc1Cl [Example 20, N-(4-{N′-[2-(5-Bromo-1H-indol-3-yl)-acetyl]-guanidinomethyl}-2,6-dichloro-phenyl)-acetamide]",< 100
21,CC(=O)Nc1c(Cl)cc(CN/C(N)=N/C(=O)Cc2c(C)[nH]c3ccc(F)cc23)cc1Cl [Example 21],100 to 1000
22,"CC(=O)Nc1c(Cl)cc(CN/C(N)=N/C(=O)Cc2c(C)[nH]c3c(F)cccc23)cc1Cl [Example 22, N-(2,6-Dichloro-4-{N′-[2-(7-fluoro-2-methyl-1H-indol-3-yl)-acetyl]-guanidinomethyl}-phenyl)-acetamide]",100 to 1000
23,"CC(=O)Nc1c(Cl)cc(CN/C(N)=N/C(=O)Cc2c[nH]c3ccc(C#N)cc23)cc1Cl [Example 23, N-(4-{N′-[2-(5-Cyano-1H-indol-3-yl)-acetyl]-guanidinomethyl}-2,6-dichloro-phenyl)-acetamide]",< 100
24,"CC(=O)Nc1c(Cl)cc(CN/C(N)=N/C(=O)Cc2c(C(=O)NC(C)(C)C)[nH]c3ccc(Br)cc23)cc1Cl [Example 24, 3-{2-[N′-(4-Acetylamino-3,5-dichloro-benzyl)-guanidino]-2-oxo-ethyl}-5-bromo-1H-indole-2-carboxylic acid tert-butylamide]",< 100
25,"CC(=O)Nc1c(Cl)cc(CN/C(N)=N/C(=O)Cc2c(C#N)[nH]c3ccc(Br)cc23)cc1Cl [Example 25, N-(4-{N′-[2-(5-Bromo-2-cyano-1H-indol-3-yl)-acetyl]-guanidinomethyl}-2,6-dichloro-phenyl)-acetamide]",< 100
